Read-outs that look alike come from different tables or passages of the source.
Settings: rcm bond, Zhan-1B, dichloromethane, 25.0 °C

CC[C@H]1COC[C@@H]2c3nc(c(O)c(=O)n31)C(=O)NCc1ccc(F)cc1OCCC=CC(=O)N2C
ring closure, yield of all isomers (from C=CCCOc1cc(F)ccc1CNC(=O)c1nc2n(c(=O)c1O)[C@@H](CC)COC[C@H]2N(C)C(=O)C=C, 3.88 mM, 15.0 h): 51%

CN1C(=O)C=CCCOc2cc(F)ccc2CNC(=O)c2nc3n(c(=O)c2O)CCCCC31 (centres unmarked)
ring closure, yield of all isomers (from C=CCCOc1cc(F)ccc1CNC(=O)c1nc2n(c(=O)c1O)CCCCC2N(C)C(=O)C=C, 5.14 mM, 15.0 h): 51%

CC[C@H]1COC[C@@H]2c3nc(c(O)c(=O)n31)C(=O)NCc1ccc(F)cc1N(C)CCC=CC(=O)N2C
ring closure, yield of all isomers (from C=CCCN(C)c1cc(F)ccc1CNC(=O)c1nc2n(c(=O)c1O)[C@@H](CC)COC[C@H]2N(C)C(=O)C=C, 2.4 mM, 15.0 h): 62%

CN1C(=O)C=CCCNc2cc(F)ccc2CNC(=O)c2nc3n(c(=O)c2O)CCCCC31 (centres unmarked)
ring closure, yield of all isomers (from C=CCCNc1cc(F)ccc1CNC(=O)c1nc2n(c(=O)c1O)CCCCC2N(C)C(=O)C=C, 2.0 mM, 20.0 h): 53%

CN1CCC=CC(=O)N(C)C2CCCCn3c2nc(c(O)c3=O)C(=O)NCc2ccc(F)cc21 (centres unmarked)
ring closure, yield of all isomers (from C=CCCN(C)c1cc(F)ccc1CNC(=O)c1nc2n(c(=O)c1O)CCCCC2N(C)C(=O)C=C, 1.4 mM, 20.0 h): 63%

CN1CC=Cc2cc(F)ccc2CNC(=O)c2nc3n(c(=O)c2OS(C)(=O)=O)CCCCC3N(C)C(=O)C1=O (centres unmarked)
ring closure, yield of all isomers (from C=CCN(C)C(=O)C(=O)N(C)C1CCCCn2c1nc(C(=O)NCc1ccc(F)cc1C=C)c(OS(C)(=O)=O)c2=O, 2.6 mM, 60.0 h): 67%

CN1C(=O)OCCCC=Cc2cc(F)ccc2CNC(=O)c2nc3n(c(=O)c2OS(C)(=O)=O)CCCCC31 (centres unmarked)
ring closure, yield of all isomers (from C=CCCCOC(=O)N(C)C1CCCCn2c1nc(C(=O)NCc1ccc(F)cc1C=C)c(OS(C)(=O)=O)c2=O, 4.25 mM, 15.0 h): 97%

CN1C(=O)CCCC=Cc2cc(F)ccc2CNC(=O)c2nc3n(c(=O)c2OS(C)(=O)=O)CCCCC31 (centres unmarked)
ring closure, yield of all isomers (from C=CCCCC(=O)N(C)C1CCCCn2c1nc(C(=O)NCc1ccc(F)cc1C=C)c(OS(C)(=O)=O)c2=O, 0.9 mM, 24.0 h): 85%

— US20150203512
